This note sets out measurements from patent publication US9096589B2, “Heteroaromatic phenylimidazole derivatives as PDE10A enzyme inhibitors” (H. Lundbeck A/S, priority 2009, dated 2015).

This test has as its target PDE10A (Homo sapiens (Human), UniProt Q9Y233). As to the kind of experiment: PDE10A inhibition assay. In kind it is biochemical. The protocol: Active PDE10A enzyme is prepared in a number of ways for use in PDE assays (Loughney, K. et al. Gene 1999, 234, 109-117; Fujishige, K. et al. Eur J. Biochem. 1999, 266, 1118-1127 and Soderling, S. et al. Proc. Natl. Acad. Sci. 1999, 96, 7071-7076). PDE10A can be expressed as full-length proteins or as truncated proteins, as long as they express the catalytic domain. PDE10A can be prepared in different cell types, for example insect cells or E. coli. An example of a method to obtain catalytically active PDE10A is as follows: The catalytic domain of human PDE10A (amino acids 440-779 from the sequence with accession number NP 006652) is amplified from total human brain total RNA by standard RT-PCR and is cloned into the BamH1 and Xho1 sites of the pET28a vector (Novagen). Expression in coli is performed according to standard protocols. Briefly, the expression plasmids are transformed into the BL21(DE3) E. coli strain, and 50 mL cultures inoculated with the cells allowed to grow to an OD600 of 0.4-0.6 before protein expression is induced with 0.5 mM IPTG. Following induction, the cells are incubated overnight at room temperature, after which the cells are collected by centrifugation. Cells expressing PDE10A are resuspended in 12 mL (50 mM TRIS-HCl-pH8.0, 1 mM MgCl2 and protease inhibitors). The cells are lysed by sonication, and after all cells are lysed, TritonX100 is added according to Novagen protocols.
A PDE10A assay may for example, be performed as follows: The assay is performed in 60 uL samples containing a fixed amount of the relevant PDE enzyme (sufficient to convert 20-25% of the cyclic nucleotide substrate); a buffer (50 mM HEPES7.6; 10 mM MgCl2; 0.02% Tween20), 0.1 mg/ml BSA, 225 pCi of ^3H-labelled cyclic nucleotide substrate, tritium labeled cAMP to a final concentration of 5 nM and varying amounts of inhibitors. Reactions are initiated by addition of the cyclic nucleotide substrate, and reactions are allowed to proceed for one hr at room temperature before being terminated through mixing with 15 uL 8 mg/mL yttrium silicate SPA beads (Amersham). The beads are allowed to settle for one hr in the dark before the plates are counted in a Wallac 1450 Microbeta counter. The measured signal can be converted to activity relative to an uninhibited control (100%) and IC50 values can be calculated using the Xlfit extension to EXCEL.

PDE10A, sequence (Q9Y233 716-1055): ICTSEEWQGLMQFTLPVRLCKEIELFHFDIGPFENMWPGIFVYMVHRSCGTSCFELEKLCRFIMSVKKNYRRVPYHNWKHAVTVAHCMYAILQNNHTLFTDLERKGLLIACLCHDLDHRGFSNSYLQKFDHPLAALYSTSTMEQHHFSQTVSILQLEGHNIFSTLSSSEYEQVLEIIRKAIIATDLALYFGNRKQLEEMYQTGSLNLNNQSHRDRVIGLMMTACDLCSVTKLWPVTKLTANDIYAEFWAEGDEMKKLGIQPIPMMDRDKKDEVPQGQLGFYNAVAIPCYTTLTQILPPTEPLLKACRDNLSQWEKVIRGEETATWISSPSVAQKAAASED

As to `COc1cccn2nc(CCc3nc(-c4cccs4)cn3C)nc12` [8-Methoxy-2-[2-(1-methyl-4-thiophen-2-yl-1H-imidazol-2-yl)-ethyl]-[1,2,4]triazolo[1,5-a]pyridine], it took 4.5 nM to reach half-maximal inhibition (IC50).

With `COc1cccn2nc(CCc3nc(-c4ccsc4)cn3C)nc12` [8-Methoxy-2-[2-(1-methyl-4-thiophen-3-yl-1H-imidazol-2-yl)-ethyl]-[1,2,4]triazolo[1,5-a]pyridine], it took 16 nM to reach half-maximal inhibition (IC50).

`COc1cccn2nc(CCc3nc(-c4cccnc4)c[nH]3)nc12` [8-Methoxy-2-[2-(4-pyridin-3-yl-1H-imidazol-2-yl)-ethyl]-[1,2,4]triazolo[1,5-a]pyridine] came in with an IC50 of 270 nM.

In the case of `COc1cccn2nc(CCc3nc(-c4cncs4)c[nH]3)nc12` [8-Methoxy-2-[2-(4-thiazol-5-yl-1H-imidazol-2-yl)-ethyl]-[1,2,4]triazolo[1,5-a]pyridine], the midpoint of inhibition, the IC50, lay at 62 nM.

In the case of `COc1cccn2nc(CCc3nc(-c4cccs4)c[nH]3)nc12` [8-Methoxy-2-[2-(4-thiophen-2-yl-1H-imidazol-2-yl)-ethyl]-[1,2,4]triazolo[1,5-a]pyridine], half-maximal inhibition (IC50) was put at 28 nM.

On to `COc1cccn2nc(/C=C/c3nc(-c4cncs4)cn3C)nc12` [8-Methoxy-2-[(E)-2-(1-methyl-4-thiazol-5-yl-1H-imidazol-2-yl)-vinyl]-[1,2,4]triazolo[1,5-a]pyridine], for which the IC50 came out at 85 nM.

For `COc1cccn2nc(/C=C/c3nc(-c4cccs4)cn3C)nc12` [8-Methoxy-2-[(E)-2-(1-methyl-4-thiophen-2-yl-1H-imidazol-2-yl)-vinyl]-[1,2,4]triazolo[1,5-a]pyridine], the half-maximal inhibitory concentration (IC50) was 62 nM.

With `COc1cccn2nc(/C=C/c3nc(-c4ccsc4)cn3C)nc12` [8-Methoxy-2-[(E)-2-(1-methyl-4-thiophen-3-yl-1H-imidazol-2-yl)-vinyl]-[1,2,4]triazolo[1,5-a]pyridine], half-maximal inhibition (IC50) was put at 52 nM.

The molecule `COc1cccn2nc(CCc3nc(-c4cscc4C)cn3C)nc12` [8-Methoxy-2-{2-[1-methyl-4-(4-methyl-thiophen-3-yl)-1H-imidazol-2-yl]-ethyl}-[1,2,4]triazolo[1,5-a]pyridine] returned an IC50 of 37 nM.

`COc1cccn2nc(CCc3nc(-c4ccc(C)o4)cn3C)nc12` [8-Methoxy-2-{2-[1-methyl-4-(5-methyl-furan-2-yl)-1H-imidazol-2-yl]-ethyl}-[1,2,4]triazolo[1,5-a]pyridine] displayed an IC50 of 56 nM.

As for `COc1cccn2nc(CCc3nc(-c4ccc(C)o4)c[nH]3)nc12` [8-Methoxy-2-{2-[4-(5-methyl-furan-2-yl)-1H-imidazol-2-yl]-ethyl}-[1,2,4]triazolo[1,5-a]pyridine], the IC50 was determined as 120 nM.

The molecule `COc1cccn2nc(/C=C/c3nc(-c4cscc4C)cn3C)nc12` [8-Methoxy-2-{(E)-2-[1-methyl-4-(4-methyl-thiophen-3-yl)-1H-imidazol-2-yl]-vinyl}-[1,2,4]triazolo[1,5-a]pyridine] gave a half-inhibitory concentration (IC50) of 55 nM.

`COc1ccc(C)n2nc(CCc3nc(-c4cccnc4)cn3C)nc12` [8-Methoxy-5-methyl-2-[2-(1-methyl-4-pyridin-3-yl-1H-imidazol-2-yl)-ethyl]-[1,2,4]triazolo[1,5-a]pyridine]: the IC50 is 24 nM.

Molecule `COc1ccc(C)n2nc(CCc3nc(-c4cncs4)cn3C)nc12` [8-Methoxy-5-methyl-2-[2-(1-methyl-4-thiazol-5-yl-1H-imidazol-2-yl)-ethyl]-[1,2,4]triazolo[1,5-a]pyridine] displayed a half-inhibitory concentration (IC50) of 9.2 nM.

In turn, `COc1ccc(C)n2nc(CCc3nc(-c4cccs4)cn3C)nc12` [8-Methoxy-5-methyl-2-[2-(1-methyl-4-thiophen-2-yl-1H-imidazol-2-yl)-ethyl]-[1,2,4]triazolo[1,5-a]pyridine] came in with an IC50 of 1.5 nM.

Take `COc1ccc(C)n2nc(CCc3nc(-c4ccsc4)cn3C)nc12` [8-Methoxy-5-methyl-2-[2-(1-methyl-4-thiophen-3-yl-1H-imidazol-2-yl)-ethyl]-[1,2,4]triazolo[1,5-a]pyridine]: the 50% inhibitory concentration (IC50) was determined as 1.7 nM.

`C#CCn1cc(-c2cccs2)nc1CCc1nc2c(OC)ccc(C)n2n1` [8-Methoxy-5-methyl-2-[2-(1-prop-2-ynyl-4-thiophen-2-yl-1H-imidazol-2-yl)-ethyl]-[1,2,4]triazolo[1,5-a]pyridine] had an IC50 of 4.1 nM.

`CCCn1cc(-c2cccs2)nc1CCc1nc2c(OC)ccc(C)n2n1` [8-Methoxy-5-methyl-2-[2-(1-propyl-4-thiophen-2-yl-1H-imidazol-2-yl)-ethyl]-[1,2,4]triazolo[1,5-a]pyridine] had an IC50 of 1.2 nM.

In the case of `COc1ccc(C)n2nc(CCc3nc(-c4cccs4)c[nH]3)nc12` [8-Methoxy-5-methyl-2-[2-(4-thiophen-2-yl-1H-imidazol-2-yl)-ethyl]-[1,2,4]triazolo[1,5-a]pyridine], half-maximal inhibition (IC50) was put at 1.1 nM.

As to `COc1ccc(C)n2nc(/C=C/c3nc(-c4cccs4)cn3C)nc12` [8-Methoxy-5-methyl-2-[(E)-2-(1-methyl-4-thiophen-2-yl-1H-imidazol-2-yl)-vinyl]-[1,2,4]triazolo[1,5-a]pyridine], the IC50 stood at 2.7 nM.

`COc1ccc(C)n2nc(CCc3nc(-c4cccs4)cn3CCN3CCOCC3)nc12` [8-Methoxy-5-methyl-2-{2-[1-(2-morpholin-4-yl-ethyl)-4-thiophen-2-yl-1H-imidazol-2-yl]-ethyl}-[1,2,4]triazolo[1,5-a]pyridine] yielded an IC50 of 0.33 nM.

`COc1ccc(C)n2nc(CCc3nc(-c4cscc4C)cn3C)nc12` [8-Methoxy-5-methyl-2-{2-[1-methyl-4-(4-methyl-thiophen-3-yl)-1H-imidazol-2-yl]-ethyl}-[1,2,4]triazolo[1,5-a]pyridine] yielded a concentration for half-maximal inhibition (IC50) of 3.1 nM.

`COc1ccc(C)n2nc(CCc3nc(-c4ccc(C)o4)cn3C)nc12` [8-Methoxy-5-methyl-2-{2-[1-methyl-4-(5-methyl-furan-2-yl)-1H-imidazol-2-yl]-ethyl}-[1,2,4]triazolo[1,5-a]pyridine] yielded an IC50 of 20 nM.

Molecule `Cc1cccn2nc(CCc3nc(-c4cncs4)cn3C)nc12` [8-Methyl-2-[2-(1-methyl-4-thiazol-5-yl-1H-imidazol-2-yl)-ethyl]-[1,2,4]triazolo[1,5-a]pyridine] displayed an IC50 of 36 nM.

The molecule `Cc1cccn2nc(CCc3nc(-c4cccs4)cn3C)nc12` [8-Methyl-2-[2-(1-methyl-4-thiophen-2-yl-1H-imidazol-2-yl)-ethyl]-[1,2,4]triazolo[1,5-a]pyridine] showed an IC50 of 15 nM.

`Cc1cccn2nc(CCc3nc(-c4cccnc4)c[nH]3)nc12` [8-Methyl-2-[2-(4-pyridin-3-yl-1H-imidazol-2-yl)-ethyl]-[1,2,4]triazolo[1,5-a]pyridine]: the IC50 was determined as 64 nM.

Regarding `Cc1cccn2nc(CCc3nc(-c4cccs4)c[nH]3)nc12` [8-Methyl-2-[2-(4-thiophen-2-yl-1H-imidazol-2-yl)-ethyl]-[1,2,4]triazolo[1,5-a]pyridine], 0.99 nM corresponded to half-maximal inhibition (IC50).

`Cc1cccc2nc(CCc3nc(-c4cccs4)cn3C[C@@H](O)CCl)nn12` [(R)-1-Chloro-3-{2-[2-(5-methyl-[1,2,4]triazolo[1,5-a]pyridin-2-yl)-ethyl]-4-thiophen-2-yl-imidazol-1-yl}-propan-2-ol] came in with a half-inhibitory concentration (IC50) of 2.8 nM.

Molecule `Cc1cccc2nc(CCc3nc(-c4cccs4)cn3C[C@@H](O)CNCCO)nn12` [(S)-1-(2-Hydroxy-ethylamino)-3-{2-[2-(5-methyl-[1,2,4]triazolo[1,5-a]pyridin-2-yl)-ethyl]-4-thiophen-2-yl-imidazol-1-yl}-propan-2-ol] showed a concentration for half-maximal inhibition (IC50) of 30 nM.

`Cc1cccc2nc(CCc3nc(-c4cccs4)cn3C[C@@H](O)CN(C)C(C)C)nn12` [(S)-1-(Isopropyl-methyl-amino)-3-{2-[2-(5-methyl-[1,2,4]triazolo[1,5-a]pyridin-2-yl)-ethyl]-4-thiophen-2-yl-imidazol-1-yl}-propan-2-ol] showed an IC50 of 97 nM.

The molecule `CCN(CC)C[C@H](O)Cn1cc(-c2cccs2)nc1CCc1nc2cccc(C)n2n1` [(S)-1-Diethylamino-3-{2-[2-(5-methyl-[1,2,4]triazolo[1,5-a]pyridin-2-yl)-ethyl]-4-thiophen-2-yl-imidazol-1-yl}-propan-2-ol] registered an IC50 of 77 nM.

In turn, `Cc1cccc2nc(CCc3nc(-c4cccs4)cn3C[C@@H](O)CN(C)C)nn12` [(S)-1-Dimethylamino-3-{2-[2-(5-methyl-[1,2,4]triazolo[1,5-a]pyridin-2-yl)-ethyl]-4-thiophen-2-yl-imidazol-1-yl}-propan-2-ol] yielded an IC50 of 47 nM.
